In brackets after ≈: the same amount, converted by molar mass. Read-outs that look alike come from different tables or passages of the source. Marks after values point to notes of the source that are not given here.
Tests used:
[1] = test system: Candida albicans (ATCC 24433); test: broth dilution MIC (EUCAST EDef 7.1), resazurin; type: cell-based; conditions: ATCC24433, 24 h
Experimental: (§1) Microbiological studies were performed according to following guides: CLSI reference […]-A9 broth microdilution method[49] for bacterial strains and EUCAST definitive (EDef 7.1) method[50] for Candida species. Synthesized compounds were tested for their in vitro growth inhibitory activity against Staphylococcus aureus (ATCC 25923), Enterococcus faecalis (ATCC 29212), Listeria monocytogenes (ATCC 1911), Klebsiella pneumoniae (NCTC 9633), Escherichia coli (ATCC 35218), E. coli (ATCC 25922) Candida albicans (ATCC 24433) Candida krusei (ATCC 6258) and Candida parapsilosis (ATCC 22019). Chloramphenicol and ketoconazole were used as control drugs. The cultures were obtained from the Mueller-Hinton broth (Difco) for the bacterial strains after overnight incubation at 37 °C. The yeasts were maintained in Roswell Park Memorial Institute (RPMI) after overnight incubation at 37 °C. […] Testing was carried out in Mueller-Hinton broth and RPMI at pH =7, and the two-fold serial dilutions technique was applied. The last well on the microplates containing only inoculated broth was kept as controls and the last well with no growth of microorganism was recorded to represent the minimum inhibitory concentration (MIC) expressed in μg/mL. For both the antibacterial and antifungal assays, the compounds were dissolved in DMSO. […] The completed plates were incubated for 24 h. At the end of the incubation, resazurin (20 μg/mL) was added into each well and plates were incubated for 2 h. MIC values were determined using a microplate reader at […]. Synthesized compounds (6a-6m) were evaluated for antimicrobial activity against various microorganisms such as Staphylococcus aureus (ATCC 25923), Enterococcus faecalis (ATCC 29212), Listeria monocytogenes (ATCC 1911), Klebsiella pneumoniae (NCTC 9633), Escherichia coli (ATCC 35218), E. coli (ATCC 25922)Candida albicans (ATCC 24433) Candida krusei (ATCC 6258) and Candida parapsilosis (ATCC 22019). […] Chloramphenicol and ketoconazole were used as standard drugs in the activity test. […] Besides, the compounds 6d, 6h, 6l and 6m indicated stronger antibacterial activity than the other compounds in the series.

[2] = test system: Candida krusei (ATCC 6258); test: broth dilution MIC (EUCAST EDef 7.1), resazurin; type: cell-based; conditions: Pichia kudriavzevii, ATCC6258, 24 h
Experimental: as §1

[3] = test system: Candida parapsilosis (ATCC 22019); test: broth dilution MIC (EUCAST EDef 7.1), resazurin; type: cell-based; conditions: ATCC22019, 24 h
Experimental: as §1

[4] = test system: Salmonella typhimurium TA98 (frameshift mutations); type: cell-based; conditions: for mutagenicity classification against TA98: presence/absence of metabolic activation (S9)
Experimental: Salmonella typhimurium strains, TA98 (frameshift mutations) and TA100 (base-pair substitutions), are used in this assay. Concentration range of the compounds was between […] and 5000 µg/mL according to the previous guidelines. Compounds were prepared in six different concentrations (5, 2.5, 1.25, 0.625, 0.3125 and 0.156 mg/mL) in DMSO. Mutagenic potential was determined in absence and presence of Aroclor™-1254 induced male Sprague–Dawley rat liver microsomal enzyme (S9) mix (Xenometrix AG, Switzerland). Positive controls without S9 mix were 2-Nitrofluorene (2 µg/mL) and 4-nitroquinoline N-oxide (0.1 µg/mL) whereas 1 and 2.5 µg/mL of 2-aminoanthracene solutions were used as positive controls with S9 against TA 98 and TA100, respectively. Solvent control was prepared with 4% DMSO. At the end of the experiment, revertant bacteria dropped the pH of solution and indicator medium color was changed to yellow. Yellow wells were counted as positive and compared with the negative control. Fold induction over the negative control and fold induction over the baseline were calculated. Fold induction over the negative control is the ratio of the mean number of positive wells for the dose concentration divided by the mean number of positive wells for the zero dose (negative) control. Fold induction over the baseline is the ratio of the mean number of positive wells for the dose concentration divided by zero dose baseline. The zero dose baseline is obtained by adding one standard deviation to the mean number of positive wells of the zero dose control. Mutagenicity was determined according to the criteria from previous studies[52]^,[56]. For a value ≤3 and significant increases between two and three-fold the baselines were classified as a weak mutagen, and increases ≥ three-fold the baselines were classified as a mutagen. […] As a rule, at least two adjacent doses with significant increases or a significant increase at the highest dose level should be observed for a mutagenic compound. All doses were compared according to Student’s t-test at p < .05 for statistical significance.
Ames assay was performed to investigate the genotoxicity of compounds 6h and 6l.

Compound	MIC [1] [µg/mL]	MIC [2] [µg/mL]	MIC [3] [µg/mL]	Revertants fold increase (over baseline) TA 98 S9− ([4]; 0.156 mg/mL)	Revertants fold increase (over baseline) TA 98 S9+ ([4]; 0.3125 mg/mL)	Revertants fold increase (over baseline) TA 98 S9− ([4]; 0.3125 mg/mL)	Revertants fold increase (over baseline) TA 98 S9+ ([4]; 0.625 mg/mL)	Revertants fold increase (over baseline) TA 98 S9− ([4]; 0.625 mg/mL)	Revertants fold increase (over baseline) TA 98 S9+ ([4]; 1.25 mg/mL)	Revertants fold increase (over baseline) TA 98 S9− ([4]; 1.25 mg/mL)	Revertants fold increase (over baseline) TA 98 S9+ ([4]; 2.5 mg/mL)	Revertants fold increase (over baseline) TA 98 S9− ([4]; 2.5 mg/mL)	Revertants fold increase (over baseline) TA 98 S9+ ([4]; 5 mg/mL)	Revertants fold increase (over baseline) TA 98 S9− ([4]; 5 mg/mL)	mutagenicity classification against TA98 [4]	melting point [°C]	Revertants fold increase (over baseline) TA 98 S9+ ([4]; 0.156 mg/mL)
COc1ccc2sc(SCc3ccc(C(C)C(=O)O)cc3)nc2c1 (stereo not drawn) [Compound 6h, 2-(4-(((5-Methoxybenzo[d]thiazol-2-yl)thio)methyl)phenyl)propanoic acid]	50 (≈ 139 µM)	100 (≈ 278 µM)	50 (≈ 139 µM)	0.56	0.52	0.56	0.70	0.60	0.17	0.73	1.05	0.22^a	0.87	0.17^a	non-mutagenic	166.5 to 168.2	
COc1ccc2[nH]c(SCc3ccc(C(C)C(=O)O)cc3)nc2c1 (stereo not drawn) [Compound 6l, 2-(4-(((5-Methoxy-1H-benzo[d]imidazol-2-yl)thio)methyl)phenyl)propanoic acid]	50 (≈ 146 µM)	50 (≈ 146 µM)	50 (≈ 146 µM)	0.57	0.50	0.31^a	0.75	0.61	0.08^a	0.04a	0.00^a	0.00^a	0.00^a	0.04^a	non-mutagenic	175.6 to 178.4	0.17^a
